As a reminder, the EC30 is the concentration needed for an effect of 30%.

T1 sequence (P13569 with tags, fused parts or gaps DEL508-508): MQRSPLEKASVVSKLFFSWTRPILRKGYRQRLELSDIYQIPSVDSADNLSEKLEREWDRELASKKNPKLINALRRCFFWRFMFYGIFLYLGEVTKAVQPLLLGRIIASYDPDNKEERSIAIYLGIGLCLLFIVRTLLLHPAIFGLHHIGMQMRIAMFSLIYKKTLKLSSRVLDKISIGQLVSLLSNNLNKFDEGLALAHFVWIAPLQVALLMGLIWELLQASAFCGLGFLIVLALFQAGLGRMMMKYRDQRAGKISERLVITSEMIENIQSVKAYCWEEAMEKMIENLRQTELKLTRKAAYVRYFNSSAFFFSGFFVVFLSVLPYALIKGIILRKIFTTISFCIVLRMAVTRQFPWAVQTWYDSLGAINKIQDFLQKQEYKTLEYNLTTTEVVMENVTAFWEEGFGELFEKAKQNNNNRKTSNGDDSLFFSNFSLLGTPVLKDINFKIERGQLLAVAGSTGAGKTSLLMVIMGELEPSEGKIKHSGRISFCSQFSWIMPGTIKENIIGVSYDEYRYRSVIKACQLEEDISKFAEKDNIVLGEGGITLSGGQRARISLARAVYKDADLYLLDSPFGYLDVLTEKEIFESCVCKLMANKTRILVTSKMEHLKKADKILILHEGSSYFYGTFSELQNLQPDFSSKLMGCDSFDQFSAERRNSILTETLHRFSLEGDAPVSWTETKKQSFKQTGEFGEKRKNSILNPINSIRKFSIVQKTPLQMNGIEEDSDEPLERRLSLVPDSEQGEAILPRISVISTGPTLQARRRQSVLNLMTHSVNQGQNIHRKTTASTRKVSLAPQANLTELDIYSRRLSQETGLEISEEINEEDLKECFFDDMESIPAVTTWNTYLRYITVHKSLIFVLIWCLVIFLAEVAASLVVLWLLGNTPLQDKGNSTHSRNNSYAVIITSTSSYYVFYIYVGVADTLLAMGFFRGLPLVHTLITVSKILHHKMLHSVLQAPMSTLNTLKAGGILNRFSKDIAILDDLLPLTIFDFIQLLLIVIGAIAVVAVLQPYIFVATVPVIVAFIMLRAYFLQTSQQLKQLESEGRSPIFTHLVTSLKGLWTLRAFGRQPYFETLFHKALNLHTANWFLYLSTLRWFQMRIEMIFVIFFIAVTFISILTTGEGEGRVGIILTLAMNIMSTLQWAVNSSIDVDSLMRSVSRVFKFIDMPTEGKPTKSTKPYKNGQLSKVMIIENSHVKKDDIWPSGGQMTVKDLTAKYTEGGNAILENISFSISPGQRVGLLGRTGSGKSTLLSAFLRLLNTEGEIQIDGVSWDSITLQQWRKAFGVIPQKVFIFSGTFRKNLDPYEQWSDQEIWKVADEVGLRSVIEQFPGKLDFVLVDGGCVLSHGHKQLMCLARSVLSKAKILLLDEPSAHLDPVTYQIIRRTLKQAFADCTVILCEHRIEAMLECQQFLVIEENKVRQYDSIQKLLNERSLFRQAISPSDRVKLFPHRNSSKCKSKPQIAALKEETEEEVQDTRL

The first test addresses T1, F508del (Homo sapiens, UniProt P13569, DEL508-508).
T1 construct: expressed in transfected cells
The test is described as follows: Protocol 2: FRET membrane potential optical assay (VIPR), identification of correction compounds. The format is cell-based. To be noted: F508del CFTR modulator activity; compounds of Table 1; read-out: EC30. The procedure, abridged:
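Corrector readout: membrane-potential FRET (CC2-DMPE donor, DiSBAC2(3) acceptor) on VIPR II after Cl⁻-free gluconate bath with 10 μM forskolin and 20 μM genistein. Before this, F508del-expressing NIH3T3 cells were exposed to test compound for 16 h at 37 °C without serum; 27 °C incubation served as temperature-correction control.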
As to `C[C@@H]1CN(c2nc(-c3ccc4c(c3)OCCO4)ccc2C(=O)NS(=O)(=O)c2ccc[nH]c2=O)C(C)(C)C1` [Compound 2516, 6-(2,3-dihydro-1,4-benzodioxin-6-yl)-N-[(2-oxo-1H-pyridin-3-yl)sulfonyl]-2-[(4S)-2,2,4-trimethylpyrrolidin-1-yl]pyridine-3-carboxamide], the EC30 lay within 3000 to 10000 nM.

For `CC1CN(c2ncccc2C(=O)NS(=O)(=O)c2cccc(Oc3cccc(F)c3)n2)C(C)(C)C1` (stereo not drawn) [Compound 2332, N—[[6-(3-fluorophenoxy)-2-pyridyl]sulfonyl]-2-(2,2,4-trimethylpyrrolidin-1-yl)pyridine-3-carboxamide], the EC30 was < 3000 nM.

As to `CC1CN(c2ncccc2C(=O)NS(=O)(=O)c2cccc(OCC(C)(C)C)n2)C(C)(C)C1` (stereo not drawn) [Compound 2412, N—[[6-(2,2-dimethylpropoxy)-2-pyridyl]sulfonyl]-2-(2,2,4-trimethylpyrrolidin-1-yl)pyridine-3-carboxamide], the EC30 is < 3000 nM.

Consider `Cc1ccc(-c2ccc(C(=O)NS(=O)(=O)c3ccc[nH]c3=O)c(N3C[C@@H](C)CC3(C)C)n2)c(O)c1` [Compound 2148, 6-(2-hydroxy-4-methyl-phenyl)-N-[(2-oxo-1H-pyridin-3-yl)sulfonyl]-2-[(4S)-2,2,4-trimethylpyrrolidin-1-yl]pyridine-3-carboxamide], for which the 30% effect concentration (EC30) was 3000 to 10000 nM.

As to `CC1CN(c2ncccc2C(=O)NS(=O)(=O)c2cccc(OC(C)c3ccccc3F)n2)C(C)(C)C1` (stereo not drawn) [Compound 2408, N—[[6-[1-(2-fluorophenyl)ethoxy]-2-pyridyl]sulfonyl]-2-(2,2,4-trimethylpyrrolidin-1-yl)pyridine-3-carboxamide], the EC30 is < 3000 nM.

Turning to `COc1ccc(-c2ccc(C(=O)NS(=O)(=O)N3CC[C@H](N)C3)c(N3C[C@@H](C)CC3(C)C)n2)cc1` [Compound 2327, N-[(3S)-3-aminopyrrolidin-1-yl]sulfonyl-6-(4-methoxyphenyl)-2-[(4S)-2,2,4-trimethylpyrrolidin-1-yl]pyridine-3-carboxamide], the EC30 lay in the range of 3000 to 10000 nM.

For the compound `CC1CN(c2ncccc2C(=O)NS(=O)(=O)c2cccc(N3CC4CCCC4C3)n2)C(C)(C)C1` (stereo not drawn) [Compound 2340, N—[[6-(3,3a,4,5,6,6a-hexahydro-1H-cyclopenta[c]pyrrol-2-yl)-2-pyridyl]sulfonyl]-2-(2,2,4-trimethylpyrrolidin-1-yl)pyridine-3-carboxamide], the EC30 was < 3000 nM.

`CC(C)COc1cc(F)cc(-c2ccc(C(=O)NS(=O)(=O)c3cccc(N)n3)c(N3CCCC4CC43)n2)c1` (stereo not drawn) [Compound 2376, N-[(6-amino-2-pyridyl)sulfonyl]-2-(5-azabicyclo[4.1.0]heptan-5-yl)-6-(3-fluoro-5-isobutoxy-phenyl)pyridine-3-carboxamide]: the EC30 is < 3000 nM.

As to `COC(=O)c1ccc(Oc2cccc(S(=O)(=O)NC(=O)c3cccnc3N3CC(C)CC3(C)C)n2)cc1` (stereo not drawn) [Compound 2728], the EC30 was < 3000 nM.

Take `C[C@@H]1CN(c2nc(C3CCOC3)ccc2C(=O)NS(=O)(=O)c2ccccc2)C(C)(C)C1` (stereo partly drawn) [Compound 2277, N-(benzenesulfonyl)-6-tetrahydrofuran-3-yl-2-[(4S)-2,2,4-trimethylpyrrolidin-1-yl]pyridine-3-carboxamide]: the EC30 is < 3000 nM.

For the compound `CC1CN(c2ncccc2C(=O)NS(=O)(=O)c2cccc(OCC3COc4ccccc4O3)n2)C(C)(C)C1` (stereo not drawn) [Compound 2115, N—[[6-(2,3-dihydro-1,4-benzodioxin-3-ylmethoxy)-2-pyridyl]sulfonyl]-2-(2,2,4-trimethylpyrrolidin-1-yl)pyridine-3-carboxamide], the EC30 is < 3000 nM.

On to `C[C@@H]1CN(c2nc(-c3ccc(F)c(F)c3)ccc2C(=O)NS(=O)(=O)c2cccc(N)n2)C(C)(C)C1` [Compound 2559, N-[(6-amino-2-pyridyl)sulfonyl]-6-(3,4-difluorophenyl)-2-[(4S)-2,2,4-trimethylpyrrolidin-1-yl]pyridine-3-carboxamide], for which the EC30 was < 3000 nM.

`CC1CN(c2ncc(-c3cc(OC(C)C)ccc3Cl)cc2C(=O)NS(=O)(=O)c2cccc(N)n2)C(C)(C)C1` (stereo not drawn) [Compound 2210, N-[(6-amino-2-pyridyl)sulfonyl]-5-(2-chloro-5-isopropoxy-phenyl)-2-(2,2,4-trimethylpyrrolidin-1-yl)pyridine-3-carboxamide]: the EC30 was < 3000 nM.

In the case of `COCCCN(C)c1cccc(S(=O)(=O)NC(=O)c2cccnc2N2CC(C)CC2(C)C)n1` (stereo not drawn) [Compound 2734], the EC30 lay in the range of 3000 to 10000 nM.

As for `Cc1cccc(COc2cccc(S(=O)(=O)NC(=O)c3cccnc3N3CC(C)CC3(C)C)n2)n1` (stereo not drawn) [Compound 2294, N—[[6-[(6-methyl-2-pyridyl)methoxy]-2-pyridyl]sulfonyl]-2-(2,2,4-trimethylpyrrolidin-1-yl)pyridine-3-carboxamide], the concentration for an effect of 30% (EC30) fell in the range of 3000 to 10000 nM.

The test is the same for the next values; noted with them: Table 3; compounds of Table 1 as modulators of CFTR activity; protocol not stated.
`Cc1cccc(C)c1Cn1nc(C(C)(C)C)cc1C(=O)NS(=O)(=O)c1ccsc1` [Compound 603, 5-tert-butyl-2-[(2,6-dimethylphenyl)methyl]-N-(3-thienylsulfonyl)pyrazole-3-carboxamide]: the EC30 result is listed as “+++ (“+++” means <3 uM)”.

With `Cc1ccc(-c2ccc(C(=O)NS(=O)(=O)c3cccc(N)n3)c(N3CC(C)CC3(C)C)n2)cc1` (stereo not drawn) [Compound 456, N-[(6-amino-2-pyridyl)sulfonyl]-6-(p-tolyl)-2-(2,2,4-trimethylpyrrolidin-1-yl)pyridine-3-carboxamide], the EC30 result is “+++ (“+++” means <3 uM)”.

`Cc1cc(C)c(Cn2c(C(=O)NS(=O)(=O)c3ccc(N)cc3)cc3ccccc32)c(C)c1` [Compound 134, N-(4-aminophenyl)sulfonyl-1-[(2,4,6-trimethylphenyl)methyl]indole-2-carboxamide]: the EC30 result is “+++ (“+++” means <3 uM)”.

Turning to `CC(C)(C)c1ccc(C(=O)NS(=O)(=O)c2cccc(N)c2)c(-c2ccc3c(c2)CCC3)n1` [Compound 308, N-(3-aminophenyl)sulfonyl-6-tert-butyl-2-indan-5-yl-pyridine-3-carboxamide], the EC30 entry is given as “+++ (“+++” means <3 uM)”.

In the case of `Cc1cc(C)c(CN2Cc3ccccc3C2C(=O)NS(=O)(=O)c2ccc(N)cc2)c(C)c1` (stereo not drawn) [Compound 121, N-(4-aminophenyl)sulfonyl-2-[(2,4,6-trimethylphenyl)methyl]isoindoline-1-carboxamide], the EC30 result is “++ (“++” means between 3 uM and 10 uM)”.

With `CC(C)(C)c1cc(C(=O)NS(=O)(=O)c2ccccc2)n(Cc2cccc(-n3cccc3)c2)n1` [Compound 108, N-(benzenesulfonyl)-5-tert-butyl-2-[(3-pyrrol-1-ylphenyl)methyl]pyrazole-3-carboxamide], the EC30 entry is on record as “+++ (“+++” means <3 uM)”.

For `CC(C)COc1cc(F)cc(-c2ccc(C(=O)NS(=O)(=O)c3ccn[nH]3)c(N3[C@H](C)CC[C@@H]3C)n2)c1` [Compound 415, 2-[(2S,5R)-2,5-dimethylpyrrolidin-1-yl]-6-(3-fluoro-5-isobutoxy-phenyl)-N-(1H-pyrazol-5-ylsulfonyl)pyridine-3-carboxamide], the EC30 result was “+++ (“+++” means <3 uM)”.

For the compound `CC(C)COc1cc(F)cc(-c2ccc(C(=O)NS(=O)(=O)c3cccc(N)n3)c(OC3CCC(C)C3)n2)c1` (stereo not drawn) [Compound 452, N-[(6-amino-2-pyridyl)sulfonyl]-6-(3-fluoro-5-isobutoxy-phenyl)-2-(3-methylcyclopentoxy)pyridine-3-carboxamide], the EC30 result is “+++ (“+++” means <3 uM)”.

For `COc1cc(-c2cc(C(=O)NS(=O)(=O)c3ccccc3)n(Cc3c(C)cccc3C)n2)ccc1Cl` [Compound 37, N-(benzenesulfonyl)-5-(4-chloro-3-methoxy-phenyl)-2-[(2,6-dimethylphenyl)methyl]pyrazole-3-carboxamide], the EC30 entry is “+++ (“+++” means <3 uM)”.

Turning to `Cc1cc(C)c(Oc2nc(C(C)(C)C)ccc2C(=O)NS(=O)(=O)c2cccc(C(F)F)n2)c(C)c1` [Compound 501, 6-tert-butyl-N-[[6-(difluoromethyl)-2-pyridyl]sulfonyl]-2-(2,4,6-trimethylphenoxy)pyridine-3-carboxamide], the EC30 result is on record as “+++ (“+++” means <3 uM)”.

As for `CC(C)COc1cc(F)cc(-c2ccc(C(=O)NS(=O)(=O)c3cccc(N)n3)c(N3CC(c4ccccc4)CC3C)n2)c1` (stereo not drawn) [Compound 488, N-[(6-amino-2-pyridyl)sulfonyl]-6-(3-fluoro-5-isobutoxy-phenyl)-2-(2-methyl-4-phenyl-pyrrolidin-1-yl)pyridine-3-carboxamide], the EC30 entry was “+++ (“+++” means <3 uM)”.

Turning to `Cc1cc(C)c(Oc2nc(C(C)(C)C)ccc2C(=O)NS(=O)(=O)c2cccc3[nH]ccc23)c(C)c1` [Compound 275, 6-tert-butyl-N-(1H-indol-4-ylsulfonyl)-2-(2,4,6-trimethylphenoxy)pyridine-3-carboxamide], the EC30 result was “+++ (“+++” means <3 uM)”.

`Cc1cc(C)c(Oc2nc(-c3cc(F)cc(OCC(C)C)c3)ccc2C(=O)NS(=O)(=O)c2cncc(N)n2)c(C)c1` [Compound 586, N-(6-aminopyrazin-2-yl)sulfonyl-6-(3-fluoro-5-isobutoxy-phenyl)-2-(2,4,6-trimethylphenoxy)pyridine-3-carboxamide]: the EC30 entry is given as “+++ (“+++” means <3 uM)”.

For the compound `Cc1ccc(-c2nc(-c3cc(F)cc(OC(C)C)c3)ccc2C(=O)NS(=O)(=O)c2cccc(N)n2)cc1` [Compound 722, N-[(6-amino-2-pyridyl)sulfonyl]-6-(3-fluoro-5-isopropoxy-phenyl)-2-(p-tolyl)pyridine-3-carboxamide], the EC30 entry was “+ (“+” means greater than 10 uM)”.

As to `CC1CN(c2nc(-c3ccc(F)cc3)ccc2C(=O)NS(=O)(=O)c2cccc(N)n2)C(C)(C)C1` (stereo not drawn) [Compound 712, N-[(6-amino-2-pyridyl)sulfonyl]-6-(4-fluorophenyl)-2-(2,2,4-trimethylpyrrolidin-1-yl)pyridine-3-carboxamide], the EC30 entry was “+++ (“+++” means <3 uM)”.

The values are drawn from patent publication US10758534B2 (Vertex Pharmaceuticals Incorporated, priority 2014, dated 2020).
